# Activity calls are given as the source filed them. The rule behind the calls is not given here.
# Tests used:
# [1] = Unbound drug level in Wistar Hannover rat plasma at 0.1 mg/kg, po after 2 hrs by UPLC-MS analysis; assay type: ADME, organism-based; details: in vivo
# [2] = Unbound drug level in Wistar Hannover rat plasma at 0.3 mg/kg, po after 2 hrs by UPLC-MS analysis; assay type: ADME, organism-based; details: in vivo
# [3] = Unbound drug level in Wistar Hannover rat plasma at 1 mg/kg, po after 2 hrs by UPLC-MS analysis; assay type: ADME, organism-based; details: in vivo
# [4] = Unbound drug level in Wistar Hannover rat plasma at 3 mg/kg, po after 2 hrs by UPLC-MS analysis; assay type: ADME, organism-based; details: in vivo
# [5] = Unbound drug level in Wistar Hannover rat plasma at 10 mg/kg, po after 2 hrs by UPLC-MS analysis; assay type: ADME, organism-based; details: in vivo
# [6] = Unbound drug level in Wistar Hannover rat plasma at 30 mg/kg, po after 2 hrs by UPLC-MS analysis; assay type: ADME, organism-based; details: in vivo
# [7] = Drug level in Wistar Hannover rat CSF at 0.1 mg/kg, po after 2 hrs by UPLC-MS analysis; assay type: ADME, organism-based, Cerebrospinal fluid; details: read-out: Drug uptake
# [8] = Drug level in Wistar Hannover rat CSF at 0.3 mg/kg, po after 2 hrs by UPLC-MS analysis; assay type: ADME, organism-based, Cerebrospinal fluid; details: read-out: Drug uptake
# [9] = Drug level in Wistar Hannover rat CSF at 1 mg/kg, po after 2 hrs by UPLC-MS analysis; assay type: ADME, organism-based, Cerebrospinal fluid; details: read-out: Drug uptake
# [10] = Drug level in Wistar Hannover rat CSF at 3 mg/kg, po after 2 hrs by UPLC-MS analysis; assay type: ADME, organism-based, Cerebrospinal fluid; details: read-out: Drug uptake
# [11] = Drug level in Wistar Hannover rat CSF at 10 mg/kg, po after 2 hrs by UPLC-MS analysis; assay type: ADME, organism-based, Cerebrospinal fluid; details: read-out: Drug uptake
# [12] = Drug level in Wistar Hannover rat CSF at 30 mg/kg, po after 2 hrs by UPLC-MS analysis; assay type: ADME, organism-based, Cerebrospinal fluid; details: read-out: Drug uptake
# [13] = test system: Rattus norvegicus; assay: Antipsychotic activity in Wistar Hannover rat assessed as reduction in MK-801-induced psychomotor activity at 1.5 to 4.5 mg/kg, po dosed 120 mins before MK-801 challenge and measured after 180 mins; assay type: functional, organism-based; details: dose 1.5-4.5 mg/kg, time 300.0 min
# [14] = test system: Rattus norvegicus; assay: Antipsychotic activity in Wistar Hannover rat assessed as reduction in MK-801-induced psychomotor activity at 3 mg/kg, po for 14 days followed by drug dosing at 3 mg/kg, po 120 mins before MK-801 challenge; assay type: functional, organism-based; details: time 20280.0 min
# [15] = test system: Rattus norvegicus; assay: Antipsychotic activity in Wistar Hannover rat assessed as reduction in conditioned avoidance responding at 1 to 3 mg/kg, po dosed 120 mins before testing; assay type: functional, organism-based; details: dose 1-3 mg/kg
# [16] = test system: Rattus norvegicus; assay: Antipsychotic activity in Wistar Hannover rat assessed as increase in recognition at 0.3 mg/kg, po dosed 90 mins before identical objects by novel object recognition test; assay type: functional, organism-based
# [17] = test system: Rattus norvegicus; assay: Antipsychotic activity in Wistar Hannover rat assessed as increase in recognition at 1 mg/kg, po dosed 90 mins before identical objects by novel object recognition test; assay type: functional, organism-based
# [18] = test system: Rattus norvegicus; assay: Reduction in locomotor activity in Wistar Hannover rat at 1 mg/kg, po dosed 90 mins before identical objects by novel object recognition test; assay type: functional, organism-based
# [19] = test system: Rattus norvegicus; assay: Reduction in object exploration in Wistar Hannover rat at 1 mg/kg, po dosed 90 mins before identical objects by novel object recognition test; assay type: functional, organism-based
# [20] = test system: Rhesus monkey; assay: Antipsychotic activity in rhesus monkey assessed as blocking of ketamine impaired performance on difficult trials at 3 mg/kg, po dosed for 4 days prior to testing and on day 5 drug was administered orally 2 h prior to testing by object retrieval detour task; assay type: functional, organism-based; details: Macaca mulatta, time 5.0 day
# [21] = test system: Rhesus monkey; assay: Antipsychotic activity in rhesus monkey assessed as attenuation of ketamine impaired performance on difficult trials at 3 mg/kg, po dosed for 4 days prior to testing and on day 5 drug was administered orally 2 h prior to testing by object retrieval detour task; assay type: functional, organism-based; details: Macaca mulatta, time 4.0 day
# [22] = Total drug level in plasma of Wistar Hannover rat engaged in object retrieval detour task at 3 mg/kg, po dosed for 4 days prior to testing and on day 5 drug was administered orally 2 h prior to testing and measured after 4 hrs by UPLC-MS analysis; assay type: ADME, organism-based; details: time 5 day
# [23] = Total drug level in plasma of […] engaged in object retrieval detour task at 10 mg/kg, po dosed for 4 days prior to testing and on day 5 drug was administered orally 2 h prior to testing and measured after 4 hrs by UPLC-MS analysis; assay type: ADME, organism-based; details: time 5 day
# [24] = Total drug level in plasma of Wistar Hannover rat not-engaged in object retrieval detour task at 10 mg/kg, po dosed for 4 days prior to testing and on day 5 drug was administered orally 2 h prior to testing and measured after 4 hrs by UPLC-MS analysis; assay type: ADME, organism-based; details: time 5 day
# [25] = Unbound drug level in plasma of Wistar Hannover rat engaged in object retrieval detour task at 3 mg/kg, po dosed for 4 days prior to testing and on day 5 drug was administered orally 2 h prior to testing and measured after 4 hrs by UPLC-MS analysis; assay type: ADME, organism-based; details: in vivo, 120 h, time 5 day
# [26] = Unbound drug level in plasma of Wistar Hannover rat engaged in object retrieval detour task at 10 mg/kg, po dosed for 4 days prior to testing and on day 5 drug was administered orally 2 h prior to testing and measured after 4 hrs by UPLC-MS analysis; assay type: ADME, organism-based; details: in vivo, 120 h, time 5 day
# [27] = Unbound drug level in plasma of Wistar Hannover rat not-engaged in object retrieval detour task at 10 mg/kg, po dosed for 4 days prior to testing and on day 5 drug was administered orally 2 h prior to testing and measured after 4 hrs by UPLC-MS analysis; assay type: ADME, organism-based; details: in vivo, 120 h, time 5 day
# [28] = Mean drug level in plasma of Wistar Hannover rat at 10 mg/kg, po dosed as single dose after 4 hrs by UPLC-MS analysis; assay type: ADME, organism-based
smiles,measurement,setting,value
COCCOc1nc(-c2ccc(Cl)nc2)nc2c1CN(C(=O)c1ncn3ccccc13)CC2 [THPP-1],Cp(f),[1],0.6 nM
same,Cp(f),[2],2.1 nM
same,Cp(f),[3],4.9 nM
same,Cp(f),[4],13.4 nM
same,Cp(f),[5],23.8 nM
same,Cp(f),[6],32.5 nM
same,concentration at 2 h,[7],1 nM
same,concentration at 2 h,[8],3 nM
same,concentration at 2 h,[9],4.2 nM
same,concentration at 2 h,[10],8.3 nM
same,concentration at 2 h,[11],16.1 nM
same,concentration at 2 h,[12],20.1 nM
same,Activity,[13],Dose-Dependent Effect
same,Activity,[14],Active
same,Activity,[15],Dose-Dependent Effect
same,Activity,[16],Active
same,Activity,[17],Active
same,Activity,[18],Active
same,Activity,[19],Active
same,Activity,[20],inactive
same,Activity,[21],Active
same,concentration at 120 h,[22],592 nM
same,concentration at 120 h,[23],1600 nM
same,concentration at 120 h,[24],2820 nM
same,Cp(f),[25],7 nM
same,Cp(f),[26],19 nM
same,Cp(f),[27],34 nM
same,concentration at 4 h,[28],1530 nM

# Source: ChEMBL document CHEMBL5653610, “The novel phosphodiesterase 10A inhibitor THPP-1 has antipsychotic-like effects in rat and improves cognition in rat and rhesus monkey” (Neuropharmacology, 2013)
